{"source": "paper PMC3341351", "about": "“Down-Regulation of GABAA Receptor via Promiscuity with the Vasoactive Peptide Urotensin II Receptor. Potential Involvement in Astrocyte Plasticity” (PLoS ONE, 2012)", "type_in_all_cases": "cell-based", "key": {"[1]": {"system": "GABAAR (β3^HA) at the plasma membrane, no UT", "test": "GABAAR internalization by immunofluorescence in CHO expressing GABAAR alone", "details": "hUII 10^−8 M, Iso 10^−4 M or both", "protocol": "(§1) For double-immunofluorescence, non-permeabilized living CHO cells expressing UT and/or α2β3 ^HAγ2 GABAA receptors were washed two times in PBS, and incubated with monoclonal mouse anti-c-myc and rabbit polyclonal anti-HA (1∶200, Santa-cruz) for 1 h on ice in DMEM. Excess antibody was removed and cells were incubated with the different receptor agonists for 30 min at RT. After several rinses in PBS, cells were fixed in 4% paraformaldehyde at 4°C for 20 min, washed three times in PBS and then incubated at RT for 2 h with appropriate secondary antibodies, i.e. Alexa-488- and 594-conjugated donkey anti-mouse IgGs diluted 1∶300 (Invitrogen). After washing, coverslips were mounted in Eukitt (VWR International, Strasbourg, France).\n(§2) All preparations were examined using a confocal laser-scanning microscope (Leica, Heidelberg, Germany) equipped with a Diaplan optical system, a UV laser (excitation wavelength 405 nm) and argon/krypton ion (excitation wavelengths 488/594 nm) laser."}, "[2]": {"system": "GABAAR (β3^HA) at the plasma membrane of CHO co-expressing human UT", "test": "GABAAR internalization by immunofluorescence in CHO-UT-GABAAR (α2β3^HAγ2)", "details": "hUII 10^−8 M, Iso 10^−4 M or both; 60 min (Figure 9 legend); mean ± SEM, 3 to 18 cells", "protocol": "as §1, with “Excess antibody was removed and cells were incubated with the different receptor agonists for 30 min at RT.” left out\nas §2"}, "UT in human U87 glioma": {"system": "UT in human U87 glioma", "test": "Flow cytometry of cell surface UT in U87 glioma", "details": "hUII 10^−8 M, 30 min", "protocol": "(§3) The human cell line from glioblastoma U87 was obtained from the American Type Culture Collection (LGC Standards, Molsheim, France). U87 cells were maintained in DMEM containing 10% FBS and 1% sodium pyruvate. NHA-Astrocytes (Lonza, Walkersville, MD, USA) were cultivated in DMEM culture medium supplemented with 2 mM glutamine, 5 mM HEPES, 1% non essential amino acids, 1% sodium pyruvate, B27, 25 ng/ml EGF, 1% of the antibiotic-antimycotic solution and 10% FBS. All cells were incubated at 37°C in a humidified atmosphere containing 5% CO2. Culture media were replaced every three days.\n(§4) Human astrocytes and glioma U87 grown in 75-cm2 flasks until confluence were washed in PBS, detached and spun down at 4°C. The cell pellet was washed, re-suspended in PBS containing 1% BSA and incubated with 10 µg/mL non-immune rabbit IgGs for 30 min. […] Cells were incubated with an FITC- or PerCP-conjugated goat anti-rabbit secondary antibody (Santa Cruz) diluted 1∶200 and measured in the FL1 (530 nm) or FL3 (670 nm) channel. Cells were analyzed on a FACScalibur flow cytometer (BD Biosciences) operated with the Cell QuestTM software. Samples in which the primary antibodies were omitted were used as control to normalize mean fluorescence levels. […] Each histogram plot was recorded from at least 10,000 gated events."}, "human UT^c-myc": {"system": "human UT^c-myc", "test": "Cell surface ELISA of UT^c-myc in CHO", "details": "hUII 10^−8 M, 30 min", "description": "For UT epitope-tagged with HA (UT^HA), or c-myc (UT^c-myc), human UT receptor cDNA inserted into pcDNA3.1 (Ressource Center, MI, USA) was amplified and PCR products were subcloned using the EcoRI and XhoI sites of pCMV-HA or pCMV-c-myc. Mutant UT receptor cDNAs were constructed by oligonucleotide-directed mutagenesis (Expand High Fidelity PCR System; Roche) using the human UT receptor cDNA inserted into pcDNA3.1 as a template. Two sets of forward and reverse oligonucleotides were used (Table S2) to introduce stop codons in frame of Leu370, Phe351, Gly332 and Thr319 (to generate UT371, UT351, UT332 and UT319, respectively). PCR products were subcloned using the EcoRI and XhoI sites of pCMV-HA after digestion by the same restriction enzymes. Mutagenesis was confirmed by automated nucleotide sequencing.\nCells were plated at 50 000 cells/well in 96-well plates coated with 0.1 mg/ml poly-L-ornithine (Sigma-Aldrich). […] The cells were washed four times with PBS, a colorimetric alkaline phosphatase substrate was added (SuperSignal ELISA, Thermo scientific, Fisher) and the resulting color reaction was measured using a Viktor multilabel plate reader (PerkinElmer, Courtaboeuf, France). Background absorbance from samples transfected with non-tagged receptors or from cells without first antibodies were systematically measured. […]"}, "[3]": {"system": "UT in native human astrocytes", "test": "Flow cytometry of cell surface UT in native human astrocytes", "details": "hUII 10^−8 M, 30 min", "protocol": "as §3, §4"}}}
{"molecule": "O=C(O)C1=CCNCC1", "note": "[Iso, isoguvacine]", "values": [{"measurement": "GABAAR internalization without UT", "setting": "[1]", "result": "remained able to provoke GABAAR removal from the plasma membrane"}, {"measurement": "GABAAR endocytosis", "setting": "[2]", "result": "39.31±2.84", "unit": "%"}]}
{"molecule": "ETPDCFWKYCV (disulfide) [hUII, human urotensin II, synthesized by solid phase methodology]", "values": [{"measurement": "UT at cell surface, U87", "setting": "UT in human U87 glioma", "result": "still present at the cell surface in U87"}, {"measurement": "Effect on cell membrane amounts of UT^c-myc", "setting": "human UT^c-myc", "result": "without modifying cell membrane amounts of UT^c-myc"}, {"measurement": "GABAAR internalization without UT", "setting": "[1]", "result": "failed to induce GABAAR internalization"}, {"measurement": "UT at cell surface, human astrocytes", "setting": "[3]", "result": "UT internalized in native astrocytes"}, {"measurement": "GABAAR endocytosis", "setting": "[2]", "result": "40.29±4.14", "unit": "%"}]}
{"molecule": "UII: Urotensin II, species not stated at that place (rUII in astrocytes, hUII in CHO and human cells)", "values": [{"measurement": "UT at cell surface, U87", "setting": "UT in human U87 glioma", "result": "failed to internalize UT in CHO and U87"}, {"measurement": "Effect on cell membrane amounts of UT^c-myc", "setting": "human UT^c-myc", "result": "failed to internalize UT in CHO and U87"}, {"measurement": "UT at cell surface, human astrocytes", "setting": "[3]", "result": "led to UT loss from human astrocyte surface"}]}
